Source: patent US8349844B2, “Substituted pyrazolo [1,5-A] pyrimidines as metabotropic glutamate antagonists” (Hoffmann-La Roche Inc., priority 2005, dated 2013)

Row | melting point | SMILES
1 | 223 °C | NS(=O)(=O)c1cccc(-c2noc(-c3cnn4ccc(-c5ccc(Cl)cc5)nc34)n2)c1 [Example 49, 3-{5-[5-(4-Chloro-phenyl)-pyrazolo[1,5-a]pyrimidin-3-yl]-[1,2,4]oxadiazol-3-yl}-benzenesulfonamide]
2 | 288 °C | NS(=O)(=O)c1ccc(-c2noc(-c3cnc4ccc(-c5ccc(C(F)(F)F)cc5)cn34)n2)cc1 [Example 50, 4-{5-[6-(4-Trifluoromethyl-phenyl)-imidazo[1,2-a]pyridin-3-yl]-[1,2,4]oxadiazol-3-yl}-benzenesulfonamide]
3 | 288 °C | NS(=O)(=O)c1cccc(-c2noc(-c3cnc4ccc(-c5ccc(C(F)(F)F)cc5)cn34)n2)c1 [Example 51, 3-{5-[6-(4-Trifluoromethyl-phenyl)-imidazo[1,2-a]pyridin-3-yl]-[1,2,4]oxadiazol-3-yl}-benzenesulfonamide]
4 | 251 °C | NS(=O)(=O)c1ccc(-c2noc(-c3cnn4ccc(-c5ccc(C(F)(F)F)cc5)nc34)n2)s1 [Example 52, 5-{5-[5-(4-Trifluoromethyl-phenyl)-pyrazolo[1,5-a]pyrimidin-3-yl]-[1,2,4]oxadiazol-3-yl}-thiophene-2-sulfonic acid amide]
5 | 270 °C | NS(=O)(=O)c1cccc(-c2noc(-c3cnn4ccc(-c5ccc(C(F)(F)F)cc5)nc34)n2)c1 [Example 53, 3-{5-[5-(4-Trifluoromethyl-phenyl)-pyrazolo[1,5-a]pyrimidin-3-yl]-[1,2,4]oxadiazol-3-yl}-benzenesulfonamide]
6 | 280 °C | NS(=O)(=O)c1ccc(-c2noc(-c3cnc4ccc(-c5ccc(C(F)(F)F)cc5)cn34)n2)s1 [Example 54, 5-{5-[6-(4-Trifluoromethyl-phenyl)-imidazo[1,2-a]pyridin-3-yl]-[1,2,4]oxadiazol-3-yl}-thiophene-2-sulfonic acid amide]
7 | 263 °C | NS(=O)(=O)c1ccc(-c2noc(-c3cnc4ccc(-c5ccc(Cl)cc5)cn34)n2)s1 [Example 55, 5-{5-[6-(4-Chloro-phenyl)-imidazo[1,2-a]pyridin-3-yl]-[1,2,4]oxadiazol-3-yl}-thiophene-2-sulfonic acid amide]
8 | 258 °C | Nc1ccc(-c2noc(-c3cnc4ccc(-c5ccc(C(F)(F)F)cc5)cn34)n2)cn1 [Example 56, 5-{5-[6-(4-Trifluoromethyl-phenyl)-imidazo[1,2-a]pyridin-3-yl]-[1,2,4]oxadiazol-3-yl}-pyridin-2-ylamine]
9 | 273 °C | Nc1ccc(-c2noc(-c3cnc4ccc(-c5ccc(Cl)cc5)cn34)n2)cn1 [Example 57, 5-{5-[6-(4-Chloro-phenyl)-imidazo[1,2-a]pyridin-3-yl]-[1,2,4]oxadiazol-3-yl}-pyridin-2-ylamine]
10 | 277 °C | Nc1cc(-c2noc(-c3cnn4c(C(F)(F)F)cc(-c5ccc(C(F)(F)F)cc5)nc34)n2)ccn1 [Example 58, 4-{5-[7-Trifluoromethyl-5-(4-trifluoromethyl-phenyl)-pyrazolo[1,5-a]pyrimidin-3-yl]-[1,2,4]oxadiazol-3-yl}-pyridin-2-ylamine]
11 | 250 °C | Nc1cc(-c2noc(-c3cnn4ccc(-c5ccc(C(F)(F)F)cc5)nc34)n2)ccn1 [Example 59, 4-{5-[5-(4-Trifluoromethyl-phenyl)-pyrazolo[1,5-a]pyrimidin-3-yl]-[1,2,4]oxadiazol-3-yl}-pyridin-2-ylamine]
12 | 264 °C | Cc1cc(-c2ccc(C(F)(F)F)cc2)cn2c(-c3nc(-c4ccnc(N)c4)no3)cnc12 [Example 60, 4-{5-[8-Methyl-6-(4-trifluoromethyl-phenyl)-imidazo[1,2-a]pyridin-3-yl]-[1,2,4]oxadiazol-3-yl}-pyridin-2-ylamine]
13 | 280 °C | Nc1cc(-c2noc(-c3cnc4ccc(-c5ccc(C(F)(F)F)cc5)cn34)n2)ccn1 [Example 61, 4-{5-[6-(4-Trifluoromethyl-phenyl)-imidazo[1,2-a]pyridin-3-yl]-[1,2,4]oxadiazol-3-yl}-pyridin-2-ylamine]
14 | 253 °C | Nc1ccc(-c2noc(-c3cnn4c(C(F)(F)F)cc(-c5ccc(Cl)cc5)nc34)n2)cn1 [Example 62, 5-{5-[5-(4-Chloro-phenyl)-7-trifluoromethyl-pyrazolo[1,5-a]pyrimidin-3-yl]-[1,2,4]oxadiazol-3-yl}-pyridin-2-ylamine]
15 | 254 °C | Nc1ccc(-c2noc(-c3cnn4c(C(F)F)cc(-c5ccc(Cl)cc5)nc34)n2)cn1 [Example 63, 5-{5-[5-(4-Chloro-phenyl)-7-difluoromethyl-pyrazolo[1,5-a]pyrimidin-3-yl]-[1,2,4]oxadiazol-3-yl}-pyridin-2-ylamine]
16 | 262 °C | Cc1cc(-c2cc(C(F)(F)F)n3ncc(-c4nc(-c5ccc(N)nc5)no4)c3n2)ccc1Cl [Example 64, 5-{5-[5-(4-Chloro-3-methyl-phenyl)-7-trifluoromethyl-pyrazolo[1,5-a]pyrimidin-3-yl]-[1,2,4]oxadiazol-3-yl}-pyridin-2-ylamine]
17 | 231 °C | Cc1cc(-c2cc(C(F)F)n3ncc(-c4nc(-c5ccc(N)nc5)no4)c3n2)ccc1C(F)(F)F [Example 65, 5-{5-[7-Difluoromethyl-5-(3-methyl-4-trifluoromethyl-phenyl)-pyrazolo[1,5-a]pyrimidin-3-yl]-[1,2,4]oxadiazol-3-yl}-pyridin-2-ylamine]
18 | 279 °C | Nc1ccc(-c2noc(-c3cnn4c(C(F)F)cc(-c5ccc(Cl)c(Cl)c5)nc34)n2)cn1 [Example 66, 5-{5-[5-(3,4-Dichloro-phenyl)-7-difluoromethyl-pyrazolo[1,5-a]pyrimidin-3-yl]-[1,2,4]oxadiazol-3-yl}-pyridin-2-ylamine]
19 | 289 °C | Nc1ccc(-c2noc(-c3cnn4c(C(F)(F)F)cc(-c5ccc(Cl)c(Cl)c5)nc34)n2)cn1 [Example 67, 5-{5-[5-(3,4-Dichloro-phenyl)-7-trifluoromethyl-pyrazolo[1,5-a]pyrimidin-3-yl]-[1,2,4]oxadiazol-3-yl}-pyridin-2-ylamine]
20 | 250 °C | CCOc1cc(-c2cc(C(F)F)n3ncc(-c4nc(-c5ccc(N)nc5)no4)c3n2)ccc1C(F)(F)F [Example 68, 5-{5-[7-Difluoromethyl-5-(3-ethoxy-4-trifluoromethyl-phenyl)-pyrazolo[1,5-a]pyrimidin-3-yl]-[1,2,4]oxadiazol-3-yl}-pyridin-2-ylamine]
21 | 263 °C | CCOc1cc(-c2cc(C(F)(F)F)n3ncc(-c4nc(-c5ccc(N)nc5)no4)c3n2)ccc1C(F)(F)F [Example 69, 5-{5-[5-(3-Ethoxy-4-trifluoromethyl-phenyl)-7-trifluoromethyl-pyrazolo[1,5-a]pyrimidin-3-yl]-[1,2,4]oxadiazol-3-yl}-pyridin-2-ylamine]
22 | 284 °C | Nc1ccc(-c2noc(-c3cnn4c(C(F)(F)F)cc(-c5ccc(C(F)(F)F)c(OCC(F)(F)F)c5)nc34)n2)cn1 [Example 70, 5-(5-{5-[3-(2,2,2-Trifluoro-ethoxy)-4-trifluoromethyl-phenyl]-7-trifluoromethyl-pyrazolo[1,5-a]pyrimidin-3-yl}-[1,2,4]oxadiazol-3-yl)-pyridin-2-ylamine]
